Reference: patent US10363239B2, “Method for inhibiting growth of cancer cells” (Pain Therapeutics, Inc., priority 2013, dated 2019)
Where two headings read alike, the source gives them in different places.

Experiments:
[1] = target: FLNA pentapeptide of SEQ ID NO: 1 (Bn-VAKGL) (Homo sapiens, UniProt P21333); experiment: FITC-NLX-based FLNA screening assay (inhibition of FITC-naloxone binding to Bn-VAKGL on streptavidin plates); details: 10 nM FITC-NLX
mu opiate receptor (MOR) = experiment: MOR agonist activity using [35S]GTPγS binding assay in striatal membranes; type: biochemical; details: for MOR agonist activity ([35S]GTPγS binding), FLNA-Binding Compound as Agonist 1 μM + BFNA: 1 μM compound + 1 μM β-funaltrexamine
In short: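 Striatal membranes (200 μg) were preincubated 5 min at 30 °C in HEPES pH 7.5 with 100 mM NaCl, 1 mM MgCl2 and 0.5 nM [35S]GTPγS, then 5 min more with 0.1–10 μM compound. Gαo was immunoprecipitated and bound radioactivity counted by scintillation.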

[2] = FLNA-binding compound 0.01 μM, read-out: Percent Binding Inhibition
[3] = FLNA-binding compound 0.1 μM, read-out: Percent Binding Inhibition
[4] = FLNA-binding compound 1 μM, read-out: Percent Binding Inhibition
[5] = 0.1 μM compound relative to DAMGO
[6] = 1 μM compound + BFNA relative to DAMGO + BFNA
[7] = 1 μM compound relative to DAMGO
[8] = read-out: Percent Binding Inhibition, FLNA-binding compound 0.01 μM
[9] = read-out: Percent Binding Inhibition, FLNA-binding compound 0.1 μM
[10] = read-out: Percent Binding Inhibition, FLNA-binding compound 1 μM
[11] = Series C-1, 0.1 μM compound, relative to DAMGO
[12] = Series C-1, 0.1 μM compound, [35S]GTPγS binding to Gαo, striatal membranes
[13] = Series C-1, 1 μM compound + 1 μM β-FNA
[14] = Series C-1, 1 μM compound + β-FNA, relative to DAMGO + BFNA
[15] = Series C-1, 1 μM compound, relative to DAMGO
[16] = Series C-1, 1 μM compound, [35S]GTPγS binding to Gαo, striatal membranes
[17] = Series B, 0.1 μM compound, relative to DAMGO
[18] = Series B, 0.1 μM compound, [35S]GTPγS binding to Gαo, striatal membranes
[19] = Series B, 1 μM compound + 1 μM β-FNA
[20] = Series B, 1 μM compound + β-FNA, relative to DAMGO + BFNA
[21] = Series B, 1 μM compound, relative to DAMGO
[22] = Series B, 1 μM compound, [35S]GTPγS binding to Gαo, striatal membranes

Compound | inhibition at 0.01 µM [1, 8] | inhibition at 0.1 µM [1, 9] | inhibition at 1 µM [1, 10] | % DAMGO (0.1 μM) (mu opiate receptor (MOR); [11]) | Concentration of FLNA-Binding Compound as Agonist 0.1 μM (mu opiate receptor (MOR); [12]) | Concentration of FLNA-Binding Compound as Agonist 1 μM + BFNA (mu opiate receptor (MOR); [13]) | % DAMGO + BFNA (mu opiate receptor (MOR); [14]) | % DAMGO (1 μM) (mu opiate receptor (MOR); [15]) | Concentration of FLNA-Binding Compound as Agonist 1 μM (mu opiate receptor (MOR); [16]) | % DAMGO (0.1 μM) (mu opiate receptor (MOR); [17]) | MOR agonist activity, percent [35S]GTPγS binding at the stated compound concentration (mu opiate receptor (MOR); [18]) | MOR agonist activity, percent [35S]GTPγS binding at the stated compound concentration (mu opiate receptor (MOR); [19]) | % DAMGO + BFNA (mu opiate receptor (MOR); [20]) | % DAMGO (1 μM) (mu opiate receptor (MOR); [21]) | MOR agonist activity, percent [35S]GTPγS binding at the stated compound concentration (mu opiate receptor (MOR); [22]) | other results
COc1ccc(OCC(O)Cn2ccc3ccccc32)cc1 (stereo not drawn) [Compound A0077] |  |  |  |  |  |  |  |  |  |  |  |  |  |  |  | inhibition at 0.01 µM [1, 2]: 41.1%; inhibition at 0.1 µM [1, 3]: 48.7%; inhibition at 1 µM [1, 4]: 49.4%; MOR agonist activity ([35S]GTPγS binding), FLNA-Binding Compound as Agonist 0.1 μM (mu opiate receptor (MOR); 0.1 μM compound): 300.1%; % DAMGO (0.1 μM) (mu opiate receptor (MOR); [5]): 170.5%; MOR agonist activity ([35S]GTPγS binding), FLNA-Binding Compound as Agonist 1 μM (mu opiate receptor (MOR); 1 μM compound): 334.7%; MOR agonist activity ([35S]GTPγS binding), FLNA-Binding Compound as Agonist 1 μM + BFNA (mu opiate receptor (MOR)): 103.5%; % DAMGO + BFNA (mu opiate receptor (MOR); [6]): 470.5%; % DAMGO (1 μM) (mu opiate receptor (MOR); [7]): 132.3%
CC(=O)c1ccc(S(=O)(=O)N2CCC3(CC2)NC(=O)CN3S(=O)(=O)c2ccc(C(C)=O)cc2)cc1 [Compound C0064] | 37.3% | 44.4% | 49.2% | 124.2% | 213.8% | 38.1% | 110.4% | 159.1% | 349.6% |  |  |  |  |  |  | 
CC1CCC(C(C)C)C(OCC(O)CN2CCC(=O)C(C)C2)C1 (stereo not drawn) [Compound A0056] | 34.4% | 40.9% | 41.3% |  |  |  |  |  |  |  |  |  |  |  |  | MOR agonist activity ([35S]GTPγS binding), FLNA-Binding Compound as Agonist 0.1 μM (mu opiate receptor (MOR); 0.1 μM compound): 115.6%; % DAMGO (0.1 μM) (mu opiate receptor (MOR); [5]): 74.1%; MOR agonist activity ([35S]GTPγS binding), FLNA-Binding Compound as Agonist 1 μM (mu opiate receptor (MOR); 1 μM compound): 129.6%; MOR agonist activity ([35S]GTPγS binding), FLNA-Binding Compound as Agonist 1 μM + BFNA (mu opiate receptor (MOR)): 17.4%; % DAMGO + BFNA (mu opiate receptor (MOR); [6]): 43.6%; % DAMGO (1 μM) (mu opiate receptor (MOR); [7]): 56.2%
COc1c2c(cc3c1C(CC(=O)Cc1ccc(Br)cc1)[N+](C)(C)CC3)OCO2 (stereo not drawn) [Compound B0011] | 40.9% | 50.3% | 55.8% |  |  |  |  |  |  | 95.7% | 158.6% | 78.0% | 120.0% | 78.7% | 212.6% | 
O=S(=O)(c1ccc(C(F)(F)F)cc1Br)N1CCC2(CC1)OCCN2S(=O)(=O)c1ccc(C(F)(F)F)cc1Br [Compound C0071] | 39.1% | 49.6% | 55.2% | 160.5% | 276.3% | 177.1% | 513.3% | 161.7% | 355.3% |  |  |  |  |  |  | 
CC(=O)c1ccc(C(=O)N2CCC3(CC2)OCCN3S(=O)(=O)c2ccc(C(C)=O)cc2)cc1 [Compound C0052] | 28% | 35.6% | 40.8% | 74.8% | 108.4% | 42.7% | 97.0% | 69.9% | 162.8% |  |  |  |  |  |  | 
COc1ccc(CC(=O)CC2c3c(cc4c(c3OC)OCO4)CC[N+]2(C)C)c(OC)c1 (stereo not drawn) [Compound B0029] | 33.4% | 42.9% | 50.2% |  |  |  |  |  |  | 89.4% | 171.9% | 17.6% | 40.1% | 77.0% | 210.3% | 
CC(=O)c1ccc(C(=O)N2CCC3(CC2)OCCN3C(=O)c2ccc(C(C)=O)cc2)cc1 [Compound C0054] |  |  |  | 47.0% | 68.2% | 43.5% | 98.9% | 54.5% | 127.0% |  |  |  |  |  |  | inhibition at 0.01 µM [1, 2]: 32.9%; inhibition at 0.1 µM [1, 3]: 39.4%; inhibition at 1 µM [1, 4]: 43.3%
COc1c2c(cc3c1C(CC(=O)CCc1ccccc1)N(C)CC3)OCO2 (stereo not drawn) [Compound B0050] |  |  |  |  |  |  |  |  |  | 58.1% | 98.2% | 48.8% | 294.0% | 96.4% | 211.0% | inhibition at 0.01 µM [1, 2]: 29.2%; inhibition at 0.1 µM [1, 3]: 34.5%; inhibition at 1 µM [1, 4]: 39.8%
COc1ccc(CCC(=O)CC2c3c(cc4c(c3OC)OCO4)CC[N+]2(C)C)c(OC)c1 (stereo not drawn) [Compound B0043] | 30.8% | 39.2% | 46.8% |  |  |  |  |  |  | 42.4% | 74.8% | 166.4% | 632.7% | 97.6% | 248.1% | 
O=S(=O)(c1cccc(OC(F)(F)F)c1)N1CCC2(CC1)OCCN2S(=O)(=O)c1cccc(OC(F)(F)F)c1 [Compound C0005] | 35.2% | 44.5% | 51.5% | 105.4% | 180.4% | 166.4% | 319.4% | 85.1% | 227.2% |  |  |  |  |  |  | 
COc1cccc(OC)c1CC(=O)CC1c2c(cc3c(c2OC)OCO3)CC[N+]1(C)C (stereo not drawn) [Compound B0036] | 46.6% | 52.8% | 62.1% |  |  |  |  |  |  | 39.2% | 61.4% | 65.1% | 199.7% | 52.1% | 120.6% | 
COCOc1ccc(CCC(=O)CC2c3c(cc4c(c3OC)OCO4)CC[N+]2(C)C)cc1 (stereo not drawn) [Compound B0040] | 40% | 53.1% | 57.1% |  |  |  |  |  |  | 93.2% | 146.0% | 55.3% | 169.6% | 105.1% | 243.3% | 
CC1CCC(C(C)C)C(OCC(O)CN2CCOc3ccccc32)C1 (stereo not drawn) [Compound A0066] |  |  |  |  |  |  |  |  |  |  |  |  |  |  |  | Percent Binding Inhibition ([1]; FLNA-binding compound 0.01 μM): 36.7%; Percent Binding Inhibition ([1]; FLNA-binding compound 0.1 μM): 45.4%; Percent Binding Inhibition ([1]; FLNA-binding compound 1 μM): 53.7%; MOR agonist activity ([35S]GTPγS binding), FLNA-Binding Compound as Agonist 0.1 μM (mu opiate receptor (MOR); 0.1 μM compound): 151.9%; % DAMGO (0.1 μM) (mu opiate receptor (MOR); [5]): 88.3%; MOR agonist activity ([35S]GTPγS binding), FLNA-Binding Compound as Agonist 1 μM (mu opiate receptor (MOR); 1 μM compound): 195.6%; MOR agonist activity ([35S]GTPγS binding), FLNA-Binding Compound as Agonist 1 μM + BFNA (mu opiate receptor (MOR)): 59.2%; % DAMGO + BFNA (mu opiate receptor (MOR); [6]): 171.6%; % DAMGO (1 μM) (mu opiate receptor (MOR); [7]): 89.0%
